Experimental data reported in ChEMBL document CHEMBL2010722, “Structure-activity relationship study of beta-carboline derivatives as haspin kinase inhibitors” (Bioorg Med Chem Lett, 2012).

Assays:
[1] = biological target: Cyclin-dependent kinase 1/cyclin B1 (Homo sapiens) (UniProt P06493+P14635); experiment: Inhibition of CDC2-CycB1 at 10 uM; format: protein-complex assay
[2] = biological target: Platelet-derived growth factor receptor alpha (Homo sapiens) (UniProt P16234); experiment: Inhibition of PDGFRa at 10 uM
[3] = biological target: Cyclin-dependent kinase 5/CDK5 activator 1 (Homo sapiens) (UniProt Q00535+Q15078); experiment: Inhibition of CDK5-p25 at 10 uM; format: protein-complex assay
[4] = biological target: Ephrin type-A receptor 3 (Homo sapiens) (UniProt P29320); experiment: Inhibition of EPHA3 at 10 uM
[5] = biological target: Tyrosine-protein kinase Fgr (Homo sapiens) (UniProt P09769); experiment: Inhibition of FGR at 10 uM
[6] = biological target: Macrophage colony-stimulating factor 1 receptor (Homo sapiens) (UniProt P07333); experiment: Inhibition of FMS at 10 uM
[7] = biological target: Homeodomain-interacting protein kinase 3 (Homo sapiens) (UniProt Q9H422); experiment: Inhibition of HIPK3 at 10 uM
[8] = biological target: Ribosomal protein S6 kinase alpha-2 (Homo sapiens) (UniProt Q15349); experiment: Inhibition of RSK3 N-terminal at 10 uM
[9] = Inhibition of CDK4/[…] at 10 uM
[10] = biological target: Serine/threonine-protein kinase N1 (Homo sapiens) (UniProt Q16512); experiment: Inhibition of PKN1 at 10 uM
[11] = biological target: Glycogen synthase kinase-3 alpha (Homo sapiens) (UniProt P49840); experiment: Inhibition of GSK3a at 10 uM
Sequence of Glycogen synthase kinase-3 alpha (Homo sapiens) (P49840 2-483 limits assumed): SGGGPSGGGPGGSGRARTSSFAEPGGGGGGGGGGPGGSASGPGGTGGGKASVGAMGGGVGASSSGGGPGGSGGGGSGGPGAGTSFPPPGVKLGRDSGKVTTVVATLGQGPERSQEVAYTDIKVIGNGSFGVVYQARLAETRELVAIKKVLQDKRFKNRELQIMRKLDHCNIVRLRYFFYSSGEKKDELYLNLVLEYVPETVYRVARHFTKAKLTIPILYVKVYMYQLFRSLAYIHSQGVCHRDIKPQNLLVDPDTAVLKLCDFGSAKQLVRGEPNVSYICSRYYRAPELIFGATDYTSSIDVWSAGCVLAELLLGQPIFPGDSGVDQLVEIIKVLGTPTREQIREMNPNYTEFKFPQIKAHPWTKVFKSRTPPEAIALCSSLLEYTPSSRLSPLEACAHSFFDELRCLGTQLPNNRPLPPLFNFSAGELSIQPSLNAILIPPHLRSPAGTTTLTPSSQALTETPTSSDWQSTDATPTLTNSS

[12] = biological target: Citron Rho-interacting kinase (Homo sapiens) (UniProt O14578); experiment: Inhibition of CRIK at 10 uM
[13] = biological target: Serine/threonine-protein kinase 38-like (Homo sapiens) (UniProt Q9Y2H1); experiment: Inhibition of NDR2 at 10 uM
[14] = biological target: Proto-oncogene tyrosine-protein kinase ROS (Homo sapiens) (UniProt P08922); experiment: Inhibition of ROS at 10 uM
[15] = system: Mast/stem cell growth factor receptor Kit (Homo sapiens), P10721 [T670I]; experiment: Inhibition of KIT T670I mutant at 10 uM
Sequence of Mast/stem cell growth factor receptor Kit (Homo sapiens), P10721 [T670I] (P10721 whole entry T670I): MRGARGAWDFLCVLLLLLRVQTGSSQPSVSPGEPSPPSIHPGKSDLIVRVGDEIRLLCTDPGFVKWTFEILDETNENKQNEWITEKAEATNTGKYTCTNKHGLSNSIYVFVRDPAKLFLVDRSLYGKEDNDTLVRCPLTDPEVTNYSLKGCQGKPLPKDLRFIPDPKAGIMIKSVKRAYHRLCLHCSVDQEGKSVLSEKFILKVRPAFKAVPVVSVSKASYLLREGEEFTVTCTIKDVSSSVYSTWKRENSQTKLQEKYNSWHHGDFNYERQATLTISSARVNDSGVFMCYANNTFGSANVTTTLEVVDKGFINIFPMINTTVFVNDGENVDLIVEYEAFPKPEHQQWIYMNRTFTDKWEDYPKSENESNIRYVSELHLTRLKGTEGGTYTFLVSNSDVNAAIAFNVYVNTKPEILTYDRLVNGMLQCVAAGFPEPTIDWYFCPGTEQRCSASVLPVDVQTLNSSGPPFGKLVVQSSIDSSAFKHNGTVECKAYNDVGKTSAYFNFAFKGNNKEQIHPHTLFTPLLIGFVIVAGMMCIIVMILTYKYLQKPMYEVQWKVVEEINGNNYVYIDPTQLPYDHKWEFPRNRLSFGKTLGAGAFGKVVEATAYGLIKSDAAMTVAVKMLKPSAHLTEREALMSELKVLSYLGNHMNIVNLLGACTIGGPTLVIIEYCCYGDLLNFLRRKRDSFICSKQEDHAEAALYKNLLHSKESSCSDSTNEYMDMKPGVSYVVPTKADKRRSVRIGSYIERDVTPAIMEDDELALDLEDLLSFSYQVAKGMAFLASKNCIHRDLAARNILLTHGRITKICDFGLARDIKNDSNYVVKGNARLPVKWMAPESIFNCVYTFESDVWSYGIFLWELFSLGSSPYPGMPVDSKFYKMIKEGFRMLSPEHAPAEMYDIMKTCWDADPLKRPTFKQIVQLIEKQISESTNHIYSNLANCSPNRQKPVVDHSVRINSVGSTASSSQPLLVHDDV

[16] = biological target: Protein kinase C eta type (Homo sapiens) (UniProt P24723); experiment: Inhibition of PKCh at 10 uM
[17] = biological target: Tyrosine-protein kinase HCK (Homo sapiens) (UniProt P08631); experiment: Inhibition of HCK at 10 uM
[18] = biological target: cAMP-dependent protein kinase catalytic subunit beta (Homo sapiens) (UniProt P22694); experiment: Inhibition of PKACb (PRKACB) at 10 uM
[19] = biological target: Dual specificity protein kinase TTK (Homo sapiens) (UniProt P33981); experiment: Inhibition of TTK at 10 uM
[20] = biological target: Fibroblast growth factor receptor 1 (Homo sapiens) (UniProt P11362); experiment: Inhibition of FGFR1 at 10 uM
Sequence of Fibroblast growth factor receptor 1 (Homo sapiens) (P11362 22-822 limits assumed): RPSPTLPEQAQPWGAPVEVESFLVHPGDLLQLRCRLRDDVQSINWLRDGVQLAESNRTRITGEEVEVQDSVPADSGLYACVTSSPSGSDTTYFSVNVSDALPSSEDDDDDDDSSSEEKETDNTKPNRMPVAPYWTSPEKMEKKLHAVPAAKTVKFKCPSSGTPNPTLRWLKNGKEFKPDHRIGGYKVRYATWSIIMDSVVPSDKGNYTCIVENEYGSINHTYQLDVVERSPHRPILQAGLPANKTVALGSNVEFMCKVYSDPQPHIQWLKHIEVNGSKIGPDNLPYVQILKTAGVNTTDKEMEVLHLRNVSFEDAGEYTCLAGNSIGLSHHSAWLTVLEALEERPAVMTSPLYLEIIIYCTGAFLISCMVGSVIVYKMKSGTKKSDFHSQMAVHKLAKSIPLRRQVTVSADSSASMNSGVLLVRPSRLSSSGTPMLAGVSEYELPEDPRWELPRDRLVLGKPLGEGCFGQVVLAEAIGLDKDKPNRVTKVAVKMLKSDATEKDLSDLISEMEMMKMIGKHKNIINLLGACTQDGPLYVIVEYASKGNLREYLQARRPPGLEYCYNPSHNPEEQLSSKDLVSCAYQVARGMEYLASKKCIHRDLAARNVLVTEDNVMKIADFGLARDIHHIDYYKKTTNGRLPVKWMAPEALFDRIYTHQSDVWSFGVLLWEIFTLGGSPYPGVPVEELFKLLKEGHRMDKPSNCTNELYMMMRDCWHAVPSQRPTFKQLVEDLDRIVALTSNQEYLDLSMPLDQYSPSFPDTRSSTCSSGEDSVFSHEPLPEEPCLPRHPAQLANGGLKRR

[21] = biological target: Aurora kinase A/Targeting protein for Xklp2 (Homo sapiens) (UniProt O14965+Q9ULW0); experiment: Inhibition of AurA-TPX2 at 10 uM; format: protein-complex assay
[22] = biological target: MAP/microtubule affinity-regulating kinase 3 (Homo sapiens) (UniProt P27448); experiment: Inhibition of MARK3 at 10 uM
[23] = system: Hepatocyte growth factor receptor (Homo sapiens), P08581 [Y1235D]; experiment: Inhibition of MET Y1235D mutant at 10 uM
[24] = biological target: SRSF protein kinase 2 (Homo sapiens) (UniProt P78362); experiment: Inhibition of SRPK2 at 10 uM
[25] = biological target: Tyrosine-protein kinase ZAP-70 (Homo sapiens) (UniProt P43403); experiment: Inhibition of ZAP70 at 10 uM
Sequence of Tyrosine-protein kinase ZAP-70 (Homo sapiens) (P43403 whole entry): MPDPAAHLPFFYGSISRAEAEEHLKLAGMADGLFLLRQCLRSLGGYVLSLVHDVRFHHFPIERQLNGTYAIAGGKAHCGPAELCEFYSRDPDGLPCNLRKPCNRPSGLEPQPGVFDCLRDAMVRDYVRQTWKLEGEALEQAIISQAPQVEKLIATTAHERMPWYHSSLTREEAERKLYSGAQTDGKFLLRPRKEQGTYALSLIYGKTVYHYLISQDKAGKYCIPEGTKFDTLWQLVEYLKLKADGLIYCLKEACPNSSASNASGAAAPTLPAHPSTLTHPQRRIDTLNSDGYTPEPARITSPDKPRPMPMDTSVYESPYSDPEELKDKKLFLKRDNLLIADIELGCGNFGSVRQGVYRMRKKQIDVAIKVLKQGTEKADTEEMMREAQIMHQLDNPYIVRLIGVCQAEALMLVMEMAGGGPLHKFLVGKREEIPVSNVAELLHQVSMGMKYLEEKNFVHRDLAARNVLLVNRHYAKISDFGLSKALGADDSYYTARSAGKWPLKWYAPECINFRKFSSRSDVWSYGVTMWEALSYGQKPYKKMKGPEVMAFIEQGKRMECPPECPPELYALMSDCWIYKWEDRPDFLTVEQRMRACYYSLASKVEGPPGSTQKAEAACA

[26] = biological target: Proto-oncogene tyrosine-protein kinase Src (Homo sapiens) (UniProt P12931); experiment: Inhibition of SRC at 10 uM
[27] = biological target: Serine/threonine-protein kinase PAK 3 (Homo sapiens) (UniProt O75914); experiment: Inhibition of PAK3 at 10 uM
[28] = biological target: Discoidin domain-containing receptor 2 (Homo sapiens) (UniProt Q16832); experiment: Inhibition of DDR2 at 10 uM
[29] = biological target: PI3-kinase p110-alpha/p85-alpha (Homo sapiens) (UniProt P27986+P42336); experiment: Inhibition of PIK3CA/PIK3R1 at 10 uM; format: protein-complex assay
[30] = biological target: Epidermal growth factor receptor (Homo sapiens) (UniProt P00533); experiment: Inhibition of EGFR at 10 uM
[31] = biological target: Serine/threonine-protein kinase Nek4 (Homo sapiens) (UniProt P51957); experiment: Inhibition of NEK4 at 10 uM
[32] = biological target: Protein kinase C beta type (Homo sapiens) (UniProt P05771); experiment: Inhibition of PKCbeta2 at 10 uM
[33] = biological target: Insulin-like growth factor 1 receptor (Homo sapiens) (UniProt P08069); experiment: Inhibition of IGF1R at 10 uM
[34] = biological target: Muscle, skeletal receptor tyrosine-protein kinase (Homo sapiens) (UniProt O15146); experiment: Inhibition of MUSK at 10 uM
[35] = biological target: Platelet-derived growth factor receptor beta (Homo sapiens) (UniProt P09619); experiment: Inhibition of PDGFRb at 10 uM
[36] = biological target: Mitogen-activated protein kinase kinase kinase 5 (Homo sapiens) (UniProt Q99683); experiment: Inhibition of MAP3K5 at 10 uM
[37] = biological target: Dual specificity mitogen-activated protein kinase kinase 7 (Homo sapiens) (UniProt O14733); experiment: Inhibition of MAP2K7 at 10 uM
Sequence of Dual specificity mitogen-activated protein kinase kinase 7 (Homo sapiens) (O14733 whole entry): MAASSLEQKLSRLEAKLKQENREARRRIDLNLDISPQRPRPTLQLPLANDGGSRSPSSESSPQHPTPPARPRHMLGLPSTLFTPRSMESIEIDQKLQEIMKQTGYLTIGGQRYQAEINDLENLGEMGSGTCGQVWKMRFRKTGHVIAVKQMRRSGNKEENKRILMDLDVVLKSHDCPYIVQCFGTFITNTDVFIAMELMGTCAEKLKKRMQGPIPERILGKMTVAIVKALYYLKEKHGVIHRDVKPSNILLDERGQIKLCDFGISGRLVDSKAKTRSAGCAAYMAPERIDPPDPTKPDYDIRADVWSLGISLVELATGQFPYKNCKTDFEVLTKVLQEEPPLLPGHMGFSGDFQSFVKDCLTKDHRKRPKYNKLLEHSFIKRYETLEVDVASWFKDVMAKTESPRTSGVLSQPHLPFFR

[38] = system: Epidermal growth factor receptor (Homo sapiens), P00533 [T790M]; experiment: Inhibition of EGFR T790M mutant at 10 uM; format: protein assay
Sequence of Epidermal growth factor receptor (Homo sapiens), P00533 [T790M] (P00533 whole entry T790M): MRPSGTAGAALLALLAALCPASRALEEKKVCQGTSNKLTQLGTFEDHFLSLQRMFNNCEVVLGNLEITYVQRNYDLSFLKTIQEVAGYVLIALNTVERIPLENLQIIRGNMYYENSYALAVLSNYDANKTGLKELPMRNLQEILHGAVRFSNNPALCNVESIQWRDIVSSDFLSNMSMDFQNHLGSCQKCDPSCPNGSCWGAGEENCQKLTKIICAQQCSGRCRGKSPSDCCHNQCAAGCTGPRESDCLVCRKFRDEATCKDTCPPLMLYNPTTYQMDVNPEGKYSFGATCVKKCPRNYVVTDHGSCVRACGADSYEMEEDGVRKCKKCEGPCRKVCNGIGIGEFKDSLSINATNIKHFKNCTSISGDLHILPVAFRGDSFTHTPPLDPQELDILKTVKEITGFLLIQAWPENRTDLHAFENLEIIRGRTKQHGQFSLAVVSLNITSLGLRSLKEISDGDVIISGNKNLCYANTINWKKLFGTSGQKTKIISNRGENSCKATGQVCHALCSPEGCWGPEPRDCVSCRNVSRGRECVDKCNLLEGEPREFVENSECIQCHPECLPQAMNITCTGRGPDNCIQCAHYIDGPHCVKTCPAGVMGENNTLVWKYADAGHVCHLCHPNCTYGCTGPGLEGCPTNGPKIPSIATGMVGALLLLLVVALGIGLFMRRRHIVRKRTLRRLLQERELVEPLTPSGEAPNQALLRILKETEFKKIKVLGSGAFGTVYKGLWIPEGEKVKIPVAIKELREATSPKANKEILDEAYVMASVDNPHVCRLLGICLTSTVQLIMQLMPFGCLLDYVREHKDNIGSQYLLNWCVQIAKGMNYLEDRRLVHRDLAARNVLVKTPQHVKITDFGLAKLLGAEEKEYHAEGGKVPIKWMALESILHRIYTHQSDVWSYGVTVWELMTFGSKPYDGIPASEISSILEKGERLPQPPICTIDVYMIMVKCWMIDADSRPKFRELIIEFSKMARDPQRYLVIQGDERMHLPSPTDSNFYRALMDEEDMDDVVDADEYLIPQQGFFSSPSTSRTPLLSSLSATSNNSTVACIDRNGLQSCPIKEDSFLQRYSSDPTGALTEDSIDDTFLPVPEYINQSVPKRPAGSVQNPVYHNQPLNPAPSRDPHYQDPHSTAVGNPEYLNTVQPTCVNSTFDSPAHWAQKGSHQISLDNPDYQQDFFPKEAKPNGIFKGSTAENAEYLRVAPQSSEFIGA

[39] = biological target: Ephrin type-B receptor 4 (Homo sapiens) (UniProt P54760); experiment: Inhibition of EPHB4 at 10 uM
[40] = biological target: Calcium/calmodulin-dependent protein kinase type II subunit gamma (Homo sapiens) (UniProt Q13555); experiment: Inhibition of CaMK2g at 10 uM
Sequence of Calcium/calmodulin-dependent protein kinase type II subunit gamma (Homo sapiens) (Q13555 whole entry): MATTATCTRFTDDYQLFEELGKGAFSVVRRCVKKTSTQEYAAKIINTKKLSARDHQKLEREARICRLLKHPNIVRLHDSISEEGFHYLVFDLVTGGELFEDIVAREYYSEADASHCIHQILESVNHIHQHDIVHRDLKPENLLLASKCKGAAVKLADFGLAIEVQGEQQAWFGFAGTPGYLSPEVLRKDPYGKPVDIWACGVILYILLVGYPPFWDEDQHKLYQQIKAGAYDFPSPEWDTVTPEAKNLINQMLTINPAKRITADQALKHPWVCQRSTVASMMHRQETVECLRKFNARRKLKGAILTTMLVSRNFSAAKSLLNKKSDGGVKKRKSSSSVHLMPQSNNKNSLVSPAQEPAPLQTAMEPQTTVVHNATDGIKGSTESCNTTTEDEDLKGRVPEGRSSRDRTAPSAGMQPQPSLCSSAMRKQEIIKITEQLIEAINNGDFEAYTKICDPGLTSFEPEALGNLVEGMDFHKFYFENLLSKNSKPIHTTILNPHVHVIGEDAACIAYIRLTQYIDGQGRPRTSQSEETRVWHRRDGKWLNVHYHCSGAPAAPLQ

[41] = biological target: Non-receptor tyrosine-protein kinase TNK1 (Homo sapiens) (UniProt Q13470); experiment: Inhibition of TNK1 at 10 uM

`COc1ccc2c3ccnc(C(F)(F)F)c3n(CCCCN)c2c1` showed an inhibition [1] of 55%, an inhibition [2] of 27% and an inhibition [3] of 39%. It also gave an inhibition [4] of 0%, an inhibition [5] of 11% and an inhibition [6] of 6%. It also gave an inhibition [7] of 49%, an inhibition [8] of 36% and an inhibition [9] of 27%. For the same compound, the inhibition [10] was 52%, the inhibition [11] was 48% and the inhibition [12] was 86%. For the same compound, the inhibition [13] was 2%, the inhibition [14] was 44% and the inhibition [15] was 16%. It also gave an inhibition [16] of 77%, an inhibition [17] of 1% and an inhibition [18] of 41%. For the same compound, the inhibition [19] was 6%, the inhibition [20] was 5% and the inhibition [21] was 0%. It also gave an inhibition [22] of 47%, an inhibition [23] of 2% and an inhibition [24] of 0%. It also gave an inhibition [25] of 3%, an inhibition [26] of 17% and an inhibition [27] of 27%. The inhibition [28] was 7%, the inhibition [29] was 13% and the inhibition [30] was 13%. The inhibition [31] was 4%, the inhibition [32] was 28% and the inhibition [33] was 0%. For the same compound, the inhibition [34] was 42%, the inhibition [35] was 73% and the inhibition [36] was 17%. For the same compound, the inhibition [37] was 15%, the inhibition [38] was 3% and the inhibition [39] was 0%. For the same compound, the inhibition [40] was 78% and the inhibition [41] was 10%.
